Test results taken from publication PMC10876507, “Chelator impact: investigating the pharmacokinetic behavior of copper-64 labeled PD-L1 radioligands” (EJNMMI Radiopharmacy and Chemistry, 2024).
Values joined by “and” are separate entries in the source; they are usually repeats but may differ in a detail not shown here. Equal entries are not always repeated.

Columns and labels:
PD-L1 [1] = target: T1, PD-L1 (Homo sapiens, UniProt Q9NZQ7); test: Real-time radioligand binding (LigandTracer) on PC3 PD-L1 overexpressing cells, without BSA; design: expressed in transfected cells; host or cells: PC3 PD-L1 overexpressing cells; details: for Kd: PC3 PD-L1 overexpressing cells, room temperature, without BSA; for ka: association rate constant; for ka / kd: real-time binding; for kd: dissociation rate constant
Protocol: For the saturation binding experiments, cells were detached with 0.05% Trypsin–EDTA (Gibco, USA), and counted (CASY1 cell counter, Schaerfe System, Reutlingen, Germany). Cells were then diluted in medium to ~ 160,000 cells/mL and seeded in 48 well plates (Falcon Multiwell #353078, ThermoFisher, Karlsruhe, Germany) for at least 2 days prior to saturation binding experiments. For real-time radioligand binding, approximately 400,000 cells/mL were seeded into one side of petri dishes (3 mL, Nunclon, # 150350, ThermoFisher Germany) ~ 24 h before the experiments.
To investigate binding kinetics, including the association rate constant (ka) and dissociation rate constant (kd), as well as the dissociation constant (KD), a real-time assay system (LigandTracer Yellow or LigandTracer White, Ridgeview Instruments AB, Uppsala, Sweden) was utilized. The petri dish contained attached cells in medium (3 mL) on one side, while radioactivity was detected on the opposing side. The petri dish is set upon an inclined base, allowing continuous measurement of alternating portions of the dish for bound radioligand (cells) compared to the background signal (no cells). Binding experiments were carried out at room temperature using CO2-independent medium (Gibco #18045088, ThermoFisher Germany).
The association phase consisted of incubation with two concentrations (30 and 90 nM, each for 90 min) of our ^64Cu-labeled PD-L1-radioligands, binding to PC3 PD-L1 overexpressing cells. Following this, the incubation medium was replaced with fresh medium, and the dissociation phase was monitored for a minimum of 2 h. […] Data were recorded as decay-corrected counts per second (CPS). Subsequently, binding data were analyzed using TraceDrawer software (version 1.9.2, Ridgeview Instruments AB, Uppsala, Sweden). Traces were imported, potential spikes (instances of sudden CPS increases exceeding 100% of the previous data point) were eliminated, and each trace was normalized to its own baseline (set as 0%) and its maximum value (set as 100%).

[2] = system: PC3 PD-L1 overexpressing and PD-L1-mock tumors; test: PET imaging in NMRI-nude mice bearing PC3 PD-L1 and PC3 mock tumors; type: in vivo; details: for reduction of PD-L1 positive tumor uptake under blocking conditions / reduction of liver uptake under blocking conditions / contrast of PD-L1 positive tumor SUVmax over mock tumor: 1–2 h p.i.; for reduction of PD-L1 positive tumor uptake under blocking conditions / reduction of liver uptake under blocking conditions: 500 nmol unlabeled compound; for contrast of PD-L1 positive tumor SUVmax over mock tumor: percent higher than mock tumor; for excretion pattern / clearance route in PET / SUVmax PC3 PD-L1 tumor, blocking / SUVmax PC3 mock tumor, blocking / SUVmax kidney, blocking / SUVmax liver, blocking / SUVmax PC3 PD-L1 tumor / SUVmax PC3 mock tumor / SUVmax kidney / SUVmax liver: mice; for excretion pattern / clearance route in PET: PET 0–25 h p.i.; for SUVmax PC3 PD-L1 tumor / SUVmax PC3 mock tumor / SUVmax kidney / SUVmax liver: tracer only, i.v.
Protocol: Male athymic NMRI-nude mice (Rj:NMRI-Foxn1nu, Janvier Labs, Le Genest-Saint-Isle, France) aged between 8 to 16 weeks were employed for the study. General anesthesia was induced [~ 10% desflurane (Baxter, Deerfield, IL, USA) in 30 vol% oxygen + air] under controlled warming (37°C), and mice were subcutaneously injected with 3–5 × 10^6 PC3 PD-L1 and PC3 mock cells (in 50 µL PBS + 50 µL Matrigel, Corning, Glendale, CA, USA) into the right and left thigh, respectively. The growth of tumors was systematically monitored three times per week through caliper measurements, and animals with tumor sizes above 7 mm were included in the subsequent experiments.
PET and X-ray computed tomography (CT) scans were conducted under general anesthesia using a small animal nanoScan PET/CT scanner (Mediso, Budapest, Hungary), capable of imaging four animals simultaneously. CT images served attenuation correction and anatomical referencing. A total of three individual scans were conducted, corresponding to the timeframes of 0–2 h (dynamic reconstruction), 4–5 h, and 24–25 h (one frame reconstruction) after injection.
The PD-L1 radiotracer candidates (in 300 µL sterile 0.9% NaCl/HEPES buffer, pH 6–7, containing between 7 and 12 MBq, with molar activities exceeding 12 GBq/µmol) were intravenously delivered over 30 s through a catheter in the lateral tail vein. The PET acquisition was initiated simultaneously with the administration.
The acquired three-dimensional list mode data were sorted and binned within a 400–600 keV energy window, forming […] (15 × 10 s, 5 × 30 s, 5 × 60 s, 4 × 300 s, 3 × 600 s, 3 × 1200 s). Reconstruction of the time frames was accomplished using the Tera-TomoTM 3D algorithm, utilizing a voxel size of 0.4 mm and applying corrections for decay, scatter, and attenuation. The images were subjected to post-processing and analysis using Rover software (ABX GmbH, Radeberg, Germany), and were depicted as maximum intensity projections (MIPs) at the specified timepoints and scaling.
Three-dimensional volumes of interest were defined using fixed thresholding at 35–40% of the maximal measured intensity. Standardized uptake values (SUV = [MBq detected activity/mL tissue] / [MBq injected activity/g body weight], in mL/g) were then calculated within the selected volumes of interest, encompassing PD-L1 and mock tumors, as well as metabolizing organs.

PD-L1 [3] = target: T1, PD-L1; test: Saturation binding assay on human PD-L1 transduced PC3 cells (assay buffer with 2.5% BSA); design: expressed in transfected cells; host or cells: PC3 cells transduced with human PD-L1 (PC3-PD-L1); details: for Kd: human PD-L1 transduced PC3 cells, on ice 90 min, PBS + 2.5% w/v BSA; for Bmax: saturation binding, pmol/mg protein, PC3 PD-L1 cells
[4] = tracer +500 nM respective unlabeled compound (injected 5 min prior), 1-2 hour p.i.
[5] = tracer +500 nM respective unlabeled compound, 1-2 hour p.i.
[6] = tracer +500 nM respective unlabeled compound, 4-5 hour p.i.
[7] = tracer +500 nM respective unlabeled compound, 24-25 hour p.i.
[8] = 1-2 hour p.i., listed as [64Cu]Cu-14
[9] = 4-5 hour p.i., listed as [64Cu]Cu-14
[10] = 1-2 hour p.i., listed as [64Cu]Cu-16

T1 sequence (Q9NZQ7 19-290): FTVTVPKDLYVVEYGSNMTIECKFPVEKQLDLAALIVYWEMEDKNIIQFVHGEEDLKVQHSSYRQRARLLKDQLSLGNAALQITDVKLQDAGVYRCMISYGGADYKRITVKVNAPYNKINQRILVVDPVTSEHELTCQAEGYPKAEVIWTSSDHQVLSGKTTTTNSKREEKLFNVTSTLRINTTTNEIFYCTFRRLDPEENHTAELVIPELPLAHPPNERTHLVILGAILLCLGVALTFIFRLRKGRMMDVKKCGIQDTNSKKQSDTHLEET

Structure (SMILES): Cc1c(COc2cc(OCc3cncc(S(C)(=O)=O)c3)c(CN[C@@H](CS(=O)(=O)O)C(=O)NCCS(=O)(=O)O)cc2Br)cccc1-c1cccc(OCc2cn(CCCN3CCN(C(=O)[C@H](CS(=O)(=O)O)NC(=O)CC[C@H](C(=O)[O-])N4CCN(CC(=O)[O-])CCN(CC(=O)[O-])CC4)CC3)nn2)c1C.[64Cu+2] [[^64Cu]Cu-14]
- Kd (PD-L1 [1]): ~20 nM and 23.3 nM
- ka (PD-L1 [1]): (5.06 ± 0.25) × 10^3 (M × s)^–1
- kd (PD-L1 [1]): (1.17 ± 0.06) × 10^–4 s^–1
- reduction of PD-L1 positive tumor uptake under blocking conditions [2]: 13%
- reduction of liver uptake under blocking conditions [2]: 63%
- contrast of PD-L1 positive tumor SUVmax over mock tumor [2]: 99%
- excretion pattern / clearance route in PET [2]: favorable renal clearance
- SUVmax PC3 PD-L1 tumor, blocking [2, 4]: 1.48 ± 0.44
- SUVmax PC3 PD-L1 tumor, blocking ([2]; tracer +500 nM respective unlabeled compound (injected 5 min prior), 1-2 hour p.i., listed as [64Cu]Cu-14): 1.48
- SUVmax PC3 mock tumor, blocking [2, 5]: 1.19
- SUVmax kidney, blocking [2, 5]: 32.81
- SUVmax liver, blocking [2, 5]: 1.25 ± 0.13
- SUVmax liver, blocking ([2]; tracer +500 nM respective unlabeled compound, 1-2 hour p.i., listed as [64Cu]Cu-14): 1.25
- SUVmax PC3 PD-L1 tumor, blocking [2, 6]: 0.78
- SUVmax PC3 mock tumor, blocking [2, 6]: 0.48
- SUVmax kidney, blocking [2, 6]: 0.88
- SUVmax liver, blocking [2, 6]: 0.98
- SUVmax PC3 PD-L1 tumor, blocking [2, 7]: 1.53
- SUVmax PC3 mock tumor, blocking [2, 7]: 1.05
- SUVmax kidney, blocking [2, 7]: 0.44
- SUVmax liver, blocking [2, 7]: 0.99
- SUVmax PC3 PD-L1 tumor ([2]; 1-2 hour p.i.): 1.71 ± 0.04
- SUVmax PC3 mock tumor ([2]; 1-2 hour p.i.): 0.86 ± 0.16
- SUVmax kidney ([2]; 1-2 hour p.i.): 22.8 ± 3.0
- SUVmax liver ([2]; 1-2 hour p.i.): 3.41 ± 0.19
- SUVmax PC3 PD-L1 tumor [2, 8]: 1.71
- SUVmax PC3 mock tumor [2, 8]: 0.86
- SUVmax kidney [2, 8]: 22.77
- SUVmax liver [2, 8]: 3.41
- SUVmax PC3 PD-L1 tumor ([2]; 4-5 hour p.i.): 1.26
- SUVmax PC3 mock tumor ([2]; 4-5 hour p.i.): 0.50
- SUVmax kidney ([2]; 4-5 hour p.i.): 0.72 ± 0.24
- SUVmax liver ([2]; 4-5 hour p.i.): 1.54 ± 0.19
- SUVmax kidney [2, 9]: 0.72
- SUVmax liver [2, 9]: 1.54
- SUVmax PC3 PD-L1 tumor ([2]; 24-25 hour p.i.): 1.52
- SUVmax PC3 mock tumor ([2]; 24-25 hour p.i.): 1.49
- SUVmax kidney ([2]; 24-25 hour p.i.): 0.63
- SUVmax liver ([2]; 24-25 hour p.i.): 1.41
- Kd (PD-L1 [3]): 100 nM
- Bmax (PD-L1 [3]): 2.40 pmol/mg and 2.40 ± 0.48 pmol/mg

Structure (SMILES): Cc1c(COc2cc(OCc3cncc(S(C)(=O)=O)c3)c(CN[C@@H](CS(=O)(=O)O)C(=O)NCCS(=O)(=O)O)cc2Br)cccc1-c1cccc(OCc2cn(CCCN3CCN(C(=O)[C@H](CS(=O)(=O)O)NC(=O)CCCC(=O)NC45CNCCNCC(N)(CNCCNC4)CNCCNC5)CC3)nn2)c1C.[64Cu+2] [[^64Cu]Cu-16]
- Kd (PD-L1 [1]): 24.2 ± 0.93 nM
- ka (PD-L1 [1]): (5.55 ± 0.31) × 10^3 (M × s)^–1
- kd (PD-L1 [1]): (1.35 ± 0.09) × 10^–4 s^–1
- reduction of PD-L1 positive tumor uptake under blocking conditions [2]: 10%
- reduction of liver uptake under blocking conditions [2]: 74%
- contrast of PD-L1 positive tumor SUVmax over mock tumor [2]: 107%
- excretion pattern / clearance route in PET [2]: clearance via the renal pathway
- SUVmax PC3 PD-L1 tumor, blocking [2, 4]: 1.45 ± 0.06
- SUVmax PC3 PD-L1 tumor, blocking ([2]; tracer +500 nM respective unlabeled compound (injected 5 min prior), 1-2 hour p.i., listed as [64Cu]Cu-16): 1.45
- SUVmax PC3 mock tumor, blocking [2, 5]: 0.90
- SUVmax kidney, blocking [2, 5]: 7.93
- SUVmax liver, blocking [2, 5]: 1.13 ± 0.04
- SUVmax liver, blocking ([2]; tracer +500 nM respective unlabeled compound, 1-2 hour p.i., listed as [64Cu]Cu-16): 1.13
- SUVmax PC3 PD-L1 tumor, blocking [2, 6]: 0.68
- SUVmax PC3 mock tumor, blocking [2, 6]: 0.54
- SUVmax kidney, blocking [2, 6]: 1.28
- SUVmax liver, blocking [2, 6]: 0.84
- SUVmax PC3 PD-L1 tumor, blocking [2, 7]: 1.14
- SUVmax PC3 mock tumor, blocking [2, 7]: 1.01
- SUVmax kidney, blocking [2, 7]: 1.02
- SUVmax liver, blocking [2, 7]: 0.85
- SUVmax PC3 PD-L1 tumor ([2]; 1-2 hour p.i.): 1.61 ± 0.93
- SUVmax PC3 mock tumor ([2]; 1-2 hour p.i.): 0.78 ± 0.36
- SUVmax kidney ([2]; 1-2 hour p.i.): 16.2 ± 15.5
- SUVmax liver ([2]; 1-2 hour p.i.): 4.32 ± 0.02
- SUVmax PC3 PD-L1 tumor [2, 10]: 1.61
- SUVmax PC3 mock tumor [2, 10]: 0.78
- SUVmax kidney [2, 10]: 16.18
- SUVmax liver [2, 10]: 4.32
- SUVmax PC3 PD-L1 tumor ([2]; 4-5 hour p.i.): 0.89
- SUVmax PC3 mock tumor ([2]; 4-5 hour p.i.): 0.37
- SUVmax kidney ([2]; 4-5 hour p.i.): 1.37
- SUVmax liver ([2]; 4-5 hour p.i.): 2.49
- SUVmax PC3 PD-L1 tumor ([2]; 24-25 hour p.i.): 1.47
- SUVmax PC3 mock tumor ([2]; 24-25 hour p.i.): 0.87
- SUVmax kidney ([2]; 24-25 hour p.i.): 0.90
- SUVmax liver ([2]; 24-25 hour p.i.): 1.77 ± 0.08
- SUVmax liver ([2]; 24-25 hour p.i., listed as [64Cu]Cu-16): 1.77
- Kd (PD-L1 [3]): 265 ± 12.5 nM
- Bmax (PD-L1 [3]): 3.30 pmol/mg and 3.30 ± 0.46 pmol/mg
